Experimental data reported in ChEMBL document CHEMBL1201862, “PubChem BioAssay data set” (2004).
Calls of active or inactive are those of the source.

Tests used:
[1] = HEp-2 cell cytotoxicity, dose response, cytotoxicity control for RSV inhibitor project, HTS (AID 2410); assay type: functional; conditions: human respiratory syncytial virus
[2] = biological target: T1, RNA-binding protein pos-1 (Caenorhabditis elegans, UniProt G5EF15); assay: inhibitors of POS-1/mex-3 RNA binding, dose response, biochemical, fluorescence polarization (AID 1964);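 further: purified POS-1 fused to maltose binding protein made in E. coli; potency of compounds blocking POS-1 binding to fluorescent RNA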
T1 sequence (G5EF15 whole entry): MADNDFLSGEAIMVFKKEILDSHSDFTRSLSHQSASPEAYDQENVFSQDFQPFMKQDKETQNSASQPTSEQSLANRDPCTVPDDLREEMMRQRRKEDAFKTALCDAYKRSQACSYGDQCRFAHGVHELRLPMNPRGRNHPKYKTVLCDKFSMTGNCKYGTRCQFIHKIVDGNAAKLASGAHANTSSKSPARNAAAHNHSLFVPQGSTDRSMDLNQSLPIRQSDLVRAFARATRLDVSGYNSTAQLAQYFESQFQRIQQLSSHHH

[3] = biological target: Glucose-6-phosphate 1-dehydrogenase (Homo sapiens, UniProt P11413); assay: human G6PD enzyme inhibitors, dose response, selectivity assay for P. falciparum G6PD inhibitor project, biochemical, fluorescence (AID 504792); assay type: functional
[4] = biological target: 5-hydroxytryptamine receptor 2A (Mus musculus, UniProt P35363); assay type: functional, cell-based;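 further: CHO-K1 cells with tagged receptor and beta-arrestin; agonist potency measured as compound-induced activation of the receptor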
[5] = biological target: T2, Zinc finger protein mex-5 (Caenorhabditis elegans, UniProt Q9XUB2); assay: MEX-5/TCR-2 RNA interaction inhibitors, dose response, biochemical, C. elegans, fluorescence polarization (AID 1960)
T2 sequence (Q9XUB2 whole entry): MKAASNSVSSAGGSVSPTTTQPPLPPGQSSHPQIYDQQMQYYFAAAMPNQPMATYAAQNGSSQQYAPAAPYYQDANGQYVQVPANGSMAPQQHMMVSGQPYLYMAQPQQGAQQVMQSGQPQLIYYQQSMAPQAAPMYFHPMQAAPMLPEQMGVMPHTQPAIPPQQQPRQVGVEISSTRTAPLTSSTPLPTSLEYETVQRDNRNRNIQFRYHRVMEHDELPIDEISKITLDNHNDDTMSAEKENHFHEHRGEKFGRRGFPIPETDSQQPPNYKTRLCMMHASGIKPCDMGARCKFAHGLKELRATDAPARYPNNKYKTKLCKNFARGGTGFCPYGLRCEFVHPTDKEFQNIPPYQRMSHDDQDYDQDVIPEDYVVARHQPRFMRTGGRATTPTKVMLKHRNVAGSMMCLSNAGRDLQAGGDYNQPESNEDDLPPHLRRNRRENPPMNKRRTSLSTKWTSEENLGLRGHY

[6] = biological target: Mu-type opioid receptor (Homo sapiens, UniProt P35372); assay type: functional, cell-based;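 further: U2OS cells with beta-arrestin recruitment to OPRM1 by beta-gal complementation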
[7] = biological target: Large T antigen (Simian virus 40, UniProt P03070); assay type: functional, Betapolyomavirus macacae;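 further: Confirmatory-stage PubChem screen for compounds that inhibit SV40 T antigen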
[8] = biological target: T3, Heat shock factor protein 1 (Mus musculus, UniProt P38532); assay: HSF1 potentiators in luciferase reporter cells, confirmation, cell-based, NIH3T3, luminescence, dose retest (AID 435004); assay type: functional;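 further: stress induced by proteasome inhibitor MG132 added 30 min after compound; luciferase reporter driven by HSF1 response element in NIH3T3 cells; actives raise luminescence as potentiators of the MG132 stress response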
T3 sequence (P38532 whole entry): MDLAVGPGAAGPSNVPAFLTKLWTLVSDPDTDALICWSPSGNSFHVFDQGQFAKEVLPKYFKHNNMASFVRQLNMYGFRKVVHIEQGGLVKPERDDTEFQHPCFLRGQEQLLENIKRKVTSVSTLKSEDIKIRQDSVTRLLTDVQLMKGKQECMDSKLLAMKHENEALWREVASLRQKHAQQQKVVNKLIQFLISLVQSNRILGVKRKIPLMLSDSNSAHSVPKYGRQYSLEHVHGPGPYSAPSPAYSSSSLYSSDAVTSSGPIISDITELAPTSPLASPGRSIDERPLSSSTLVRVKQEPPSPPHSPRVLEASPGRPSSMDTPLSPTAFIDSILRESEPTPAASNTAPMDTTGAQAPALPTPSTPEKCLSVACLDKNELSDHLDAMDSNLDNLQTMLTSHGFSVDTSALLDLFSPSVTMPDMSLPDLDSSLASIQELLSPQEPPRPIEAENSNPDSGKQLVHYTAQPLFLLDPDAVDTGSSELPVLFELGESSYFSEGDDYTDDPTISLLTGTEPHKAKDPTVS

[9] = biological target: Beta-galactosidase (Escherichia coli, UniProt Q8VNN2); assay: Dose response counterscreen for EBI2 assay utilizing the enzyme, b-galactosidase.; assay type: functional
[10] = biological target: SWI/SNF-related matrix-associated actin-dependent regulator of chromatin subfamily A member 2 (Homo sapiens, UniProt P51531); assay: Luminescence-based cell-based high throughput dose response assay to identify activators of the function of SWI/SNF related, matrix associated, actin dependent regulator of chromatin, subfamily a, member 2 (SMARCA2, BRM).; assay type: functional
[11] = Counterscreen for activators of the function of SWI/SNF related, matrix associated, actin dependent regulator of chromatin, subfamily a, member 2 (SMARCA2, BRM): Luminescence-based cell-based high throughput dose response assay to identify non-selective compounds using the VP16 reporter assay.; assay type: functional
[12] = biological target: T4, Corticotropin-releasing factor receptor 2/Corticotropin-releasing factor-binding protein (Homo sapiens, UniProt P24387+Q13324); assay: activators of CRF receptor 2 with binding protein – uHTS hits, confirmation (AID 602473); assay type: functional; conditions: read-out: EC50_Mean
T4 sequence (Q13324 whole entry): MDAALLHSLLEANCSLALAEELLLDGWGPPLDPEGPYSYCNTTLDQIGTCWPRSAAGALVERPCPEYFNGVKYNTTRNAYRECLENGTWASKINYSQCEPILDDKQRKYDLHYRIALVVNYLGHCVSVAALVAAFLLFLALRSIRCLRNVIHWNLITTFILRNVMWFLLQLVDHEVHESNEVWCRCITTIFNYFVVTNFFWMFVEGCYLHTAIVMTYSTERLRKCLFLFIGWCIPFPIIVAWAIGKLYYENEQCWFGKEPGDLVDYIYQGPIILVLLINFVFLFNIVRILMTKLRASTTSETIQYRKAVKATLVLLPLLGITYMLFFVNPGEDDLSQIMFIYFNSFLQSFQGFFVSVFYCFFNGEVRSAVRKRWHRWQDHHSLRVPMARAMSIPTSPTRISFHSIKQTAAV
T4 sequence (P24387 whole entry): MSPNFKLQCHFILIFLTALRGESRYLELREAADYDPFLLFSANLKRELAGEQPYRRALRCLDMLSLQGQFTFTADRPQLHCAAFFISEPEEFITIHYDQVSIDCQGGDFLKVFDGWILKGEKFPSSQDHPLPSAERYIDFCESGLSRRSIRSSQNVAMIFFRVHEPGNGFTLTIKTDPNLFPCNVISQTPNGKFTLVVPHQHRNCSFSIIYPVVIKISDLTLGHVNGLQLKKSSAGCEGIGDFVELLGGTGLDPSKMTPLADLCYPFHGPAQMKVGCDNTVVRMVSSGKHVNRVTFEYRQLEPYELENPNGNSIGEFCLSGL

[13] = biological target: T4, Corticotropin-releasing factor receptor 2/Corticotropin-releasing factor-binding protein; assay: Dose Response confirmation of uHTS hits for small molecule antagonists of the CRF-binding protein and CRF-R2 receptor complex.; assay type: functional; conditions: read-out: IC50_Mean
[14] = biological target: T5, Replicative DNA helicase DnaB (Mycobacterium tuberculosis, UniProt P9WMR3); assay: DnaB intein splicing inhibitors, dose response, biochemical, cell-free fluorescence (AID 449749); assay type: functional
T5 sequence (P9WMR3 whole entry): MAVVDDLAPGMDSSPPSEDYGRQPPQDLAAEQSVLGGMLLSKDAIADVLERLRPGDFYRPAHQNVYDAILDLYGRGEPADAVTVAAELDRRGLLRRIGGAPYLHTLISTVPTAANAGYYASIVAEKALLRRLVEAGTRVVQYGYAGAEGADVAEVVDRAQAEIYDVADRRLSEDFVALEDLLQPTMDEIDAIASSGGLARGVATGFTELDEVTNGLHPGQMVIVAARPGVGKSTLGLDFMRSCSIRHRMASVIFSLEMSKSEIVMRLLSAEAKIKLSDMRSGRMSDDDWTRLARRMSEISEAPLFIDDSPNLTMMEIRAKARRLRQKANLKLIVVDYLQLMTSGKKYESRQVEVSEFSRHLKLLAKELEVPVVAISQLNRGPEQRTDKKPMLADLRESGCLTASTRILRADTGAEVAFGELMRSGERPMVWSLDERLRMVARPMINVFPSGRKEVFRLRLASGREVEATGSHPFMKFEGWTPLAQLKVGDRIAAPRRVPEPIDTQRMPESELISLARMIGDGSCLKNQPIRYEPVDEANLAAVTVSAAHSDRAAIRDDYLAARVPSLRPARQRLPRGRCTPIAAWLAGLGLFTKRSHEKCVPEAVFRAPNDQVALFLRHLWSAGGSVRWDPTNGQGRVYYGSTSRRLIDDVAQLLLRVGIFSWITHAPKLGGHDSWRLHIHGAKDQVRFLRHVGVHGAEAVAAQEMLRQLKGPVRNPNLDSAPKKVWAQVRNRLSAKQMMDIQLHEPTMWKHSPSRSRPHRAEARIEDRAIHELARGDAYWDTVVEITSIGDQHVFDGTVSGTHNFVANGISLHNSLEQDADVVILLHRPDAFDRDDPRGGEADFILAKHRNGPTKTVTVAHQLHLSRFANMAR

[15] = biological target: T6, Protein RecA (Mycobacterium tuberculosis, UniProt P9WHJ3); assay: Fluorescence Cell-Free Homogeneous Dose Retest to Identify Inhibitors of RecA-Intein Splicing Activity. [Related pubchem assays (depositor defined):AID2097, AID2223, AID489010, AID492950]; assay type: functional
T6 sequence (P9WHJ3 whole entry): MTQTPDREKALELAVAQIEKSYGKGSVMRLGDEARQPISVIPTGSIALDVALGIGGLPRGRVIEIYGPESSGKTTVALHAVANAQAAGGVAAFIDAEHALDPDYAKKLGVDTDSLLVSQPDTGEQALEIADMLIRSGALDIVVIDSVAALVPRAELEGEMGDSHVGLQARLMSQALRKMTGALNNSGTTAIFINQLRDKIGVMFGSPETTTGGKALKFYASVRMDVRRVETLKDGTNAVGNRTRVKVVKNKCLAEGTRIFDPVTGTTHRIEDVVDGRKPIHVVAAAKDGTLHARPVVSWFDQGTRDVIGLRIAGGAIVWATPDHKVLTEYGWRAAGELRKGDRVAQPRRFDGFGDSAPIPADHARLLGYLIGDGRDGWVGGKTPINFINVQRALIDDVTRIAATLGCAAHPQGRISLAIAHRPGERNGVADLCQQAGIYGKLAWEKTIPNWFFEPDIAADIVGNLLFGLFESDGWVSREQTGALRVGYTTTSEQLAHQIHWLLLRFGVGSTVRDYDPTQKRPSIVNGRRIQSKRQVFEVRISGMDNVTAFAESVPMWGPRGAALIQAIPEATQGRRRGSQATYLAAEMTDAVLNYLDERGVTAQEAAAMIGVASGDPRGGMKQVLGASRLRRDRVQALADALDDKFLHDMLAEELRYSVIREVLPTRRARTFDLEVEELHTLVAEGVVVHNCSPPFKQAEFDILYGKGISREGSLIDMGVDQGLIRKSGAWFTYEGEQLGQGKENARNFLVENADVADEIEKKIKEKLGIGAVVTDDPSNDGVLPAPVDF

[16] = biological target: Cytochrome P450 2C19 (Homo sapiens, UniProt P33261); assay: Cytochrome panel assay with activity outcomes. Panel member name: p450-cyp2c19 Compounds with AC50 equal or less than 10 uM are considered active; assay type: functional
[17] = biological target: Cytochrome P450 2C9 (Homo sapiens, UniProt P11712)
[18] = biological target: Cytochrome P450 2D6 (Homo sapiens, UniProt P10635);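 further: CYP2D6 member of a cytochrome P450 panel assay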
[19] = biological target: T7, Cytochrome P450 1A2 (Homo sapiens, UniProt P05177);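 further: PubChem cytochrome P450 panel assay, CYP1A2 panel member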
T7 sequence (P05177 whole entry): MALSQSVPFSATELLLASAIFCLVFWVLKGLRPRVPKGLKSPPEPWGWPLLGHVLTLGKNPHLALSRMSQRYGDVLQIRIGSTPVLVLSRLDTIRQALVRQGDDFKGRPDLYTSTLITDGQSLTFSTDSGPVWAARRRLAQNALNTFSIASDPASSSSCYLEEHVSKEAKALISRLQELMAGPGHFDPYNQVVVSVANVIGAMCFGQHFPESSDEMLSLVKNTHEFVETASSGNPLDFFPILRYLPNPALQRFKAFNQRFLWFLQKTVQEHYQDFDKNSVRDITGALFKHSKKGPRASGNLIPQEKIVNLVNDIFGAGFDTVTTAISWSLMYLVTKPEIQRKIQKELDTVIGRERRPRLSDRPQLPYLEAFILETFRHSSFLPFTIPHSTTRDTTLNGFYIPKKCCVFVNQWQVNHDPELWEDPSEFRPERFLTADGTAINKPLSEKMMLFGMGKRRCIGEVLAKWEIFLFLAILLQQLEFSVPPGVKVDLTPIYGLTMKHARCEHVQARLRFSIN

[20] = inhibitors of PGC1a acetylation in cells, dose response, cell-based, cherry-picked samples (AID 720514); assay type: functional;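 further: potency may reflect raised or lowered acetylation signal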

Sequence of Mu-type opioid receptor (P35372 whole entry): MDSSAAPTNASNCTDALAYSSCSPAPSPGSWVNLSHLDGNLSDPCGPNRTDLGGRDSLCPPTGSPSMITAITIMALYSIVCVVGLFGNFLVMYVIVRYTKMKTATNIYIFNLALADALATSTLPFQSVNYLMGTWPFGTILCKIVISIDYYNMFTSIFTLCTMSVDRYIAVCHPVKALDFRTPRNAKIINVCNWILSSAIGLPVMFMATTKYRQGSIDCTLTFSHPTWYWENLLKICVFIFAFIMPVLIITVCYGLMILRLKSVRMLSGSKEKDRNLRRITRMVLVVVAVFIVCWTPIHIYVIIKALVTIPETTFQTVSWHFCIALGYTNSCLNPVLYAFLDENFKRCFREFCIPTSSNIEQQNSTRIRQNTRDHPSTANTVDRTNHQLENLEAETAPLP
Sequence of Beta-galactosidase (Q8VNN2 whole entry): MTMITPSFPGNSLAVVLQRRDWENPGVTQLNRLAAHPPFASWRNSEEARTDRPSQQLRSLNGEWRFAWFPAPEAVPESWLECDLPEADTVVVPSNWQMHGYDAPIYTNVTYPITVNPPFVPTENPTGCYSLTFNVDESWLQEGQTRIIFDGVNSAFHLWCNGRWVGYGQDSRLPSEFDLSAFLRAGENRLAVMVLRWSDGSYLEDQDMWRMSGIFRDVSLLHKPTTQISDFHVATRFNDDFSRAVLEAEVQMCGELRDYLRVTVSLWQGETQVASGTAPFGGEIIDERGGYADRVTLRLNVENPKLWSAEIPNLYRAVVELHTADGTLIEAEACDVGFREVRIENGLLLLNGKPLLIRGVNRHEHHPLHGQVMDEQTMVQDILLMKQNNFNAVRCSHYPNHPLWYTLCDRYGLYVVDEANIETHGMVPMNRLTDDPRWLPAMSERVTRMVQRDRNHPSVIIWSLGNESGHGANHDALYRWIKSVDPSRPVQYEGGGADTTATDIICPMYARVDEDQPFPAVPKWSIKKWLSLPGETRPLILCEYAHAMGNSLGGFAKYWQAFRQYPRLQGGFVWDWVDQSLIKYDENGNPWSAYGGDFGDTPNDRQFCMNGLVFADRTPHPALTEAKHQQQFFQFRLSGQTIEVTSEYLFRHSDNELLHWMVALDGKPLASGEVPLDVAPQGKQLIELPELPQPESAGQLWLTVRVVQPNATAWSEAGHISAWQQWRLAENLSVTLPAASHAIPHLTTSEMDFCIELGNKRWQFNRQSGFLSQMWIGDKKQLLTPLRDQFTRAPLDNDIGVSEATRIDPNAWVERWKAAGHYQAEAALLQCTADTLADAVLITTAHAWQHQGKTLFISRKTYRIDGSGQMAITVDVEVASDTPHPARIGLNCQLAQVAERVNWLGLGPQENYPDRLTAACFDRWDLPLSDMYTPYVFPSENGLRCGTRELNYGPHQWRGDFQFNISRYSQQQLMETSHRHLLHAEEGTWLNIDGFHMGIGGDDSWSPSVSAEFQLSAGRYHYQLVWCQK
Sequence of 5-hydroxytryptamine receptor 2A (P35363 whole entry): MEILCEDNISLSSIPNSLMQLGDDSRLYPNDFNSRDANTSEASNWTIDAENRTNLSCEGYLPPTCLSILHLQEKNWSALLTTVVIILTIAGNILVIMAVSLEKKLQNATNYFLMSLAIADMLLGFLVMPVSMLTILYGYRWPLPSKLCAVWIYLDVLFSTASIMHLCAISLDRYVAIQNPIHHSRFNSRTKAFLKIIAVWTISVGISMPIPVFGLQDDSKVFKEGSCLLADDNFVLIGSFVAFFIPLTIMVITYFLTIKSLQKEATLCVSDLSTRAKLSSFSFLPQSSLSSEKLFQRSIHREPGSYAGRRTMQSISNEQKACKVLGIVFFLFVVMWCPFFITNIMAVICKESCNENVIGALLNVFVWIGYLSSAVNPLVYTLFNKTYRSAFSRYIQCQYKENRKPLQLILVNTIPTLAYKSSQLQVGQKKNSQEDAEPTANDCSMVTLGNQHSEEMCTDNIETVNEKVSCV
Sequence of Cytochrome P450 2D6 (P10635 whole entry): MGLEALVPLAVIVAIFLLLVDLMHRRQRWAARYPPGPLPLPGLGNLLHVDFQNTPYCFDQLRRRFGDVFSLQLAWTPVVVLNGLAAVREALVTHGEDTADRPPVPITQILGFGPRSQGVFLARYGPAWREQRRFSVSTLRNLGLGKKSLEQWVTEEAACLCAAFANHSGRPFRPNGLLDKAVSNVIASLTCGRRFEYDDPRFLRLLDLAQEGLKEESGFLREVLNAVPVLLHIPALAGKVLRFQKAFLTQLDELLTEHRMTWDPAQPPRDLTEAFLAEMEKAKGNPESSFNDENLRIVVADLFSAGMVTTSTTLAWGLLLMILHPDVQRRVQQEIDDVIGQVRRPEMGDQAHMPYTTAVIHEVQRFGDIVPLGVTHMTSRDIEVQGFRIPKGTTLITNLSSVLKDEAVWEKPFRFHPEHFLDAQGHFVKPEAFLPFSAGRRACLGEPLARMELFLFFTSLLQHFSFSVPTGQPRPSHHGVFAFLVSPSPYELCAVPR
Sequence of Cytochrome P450 2C9 (P11712 whole entry): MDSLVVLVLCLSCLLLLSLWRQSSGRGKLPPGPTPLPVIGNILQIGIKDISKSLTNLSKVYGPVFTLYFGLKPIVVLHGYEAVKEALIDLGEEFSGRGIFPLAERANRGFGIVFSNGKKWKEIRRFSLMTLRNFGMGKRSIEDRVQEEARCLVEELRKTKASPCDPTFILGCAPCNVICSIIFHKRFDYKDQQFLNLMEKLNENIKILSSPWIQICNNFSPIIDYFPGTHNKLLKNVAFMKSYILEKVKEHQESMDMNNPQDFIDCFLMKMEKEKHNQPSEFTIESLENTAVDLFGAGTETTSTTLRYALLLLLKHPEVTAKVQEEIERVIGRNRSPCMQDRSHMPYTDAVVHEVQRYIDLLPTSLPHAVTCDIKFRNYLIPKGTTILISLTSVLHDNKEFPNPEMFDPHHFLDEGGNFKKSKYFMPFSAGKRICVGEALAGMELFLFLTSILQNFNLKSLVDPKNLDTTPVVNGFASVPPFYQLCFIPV
Sequence of Cytochrome P450 2C19 (P33261 whole entry): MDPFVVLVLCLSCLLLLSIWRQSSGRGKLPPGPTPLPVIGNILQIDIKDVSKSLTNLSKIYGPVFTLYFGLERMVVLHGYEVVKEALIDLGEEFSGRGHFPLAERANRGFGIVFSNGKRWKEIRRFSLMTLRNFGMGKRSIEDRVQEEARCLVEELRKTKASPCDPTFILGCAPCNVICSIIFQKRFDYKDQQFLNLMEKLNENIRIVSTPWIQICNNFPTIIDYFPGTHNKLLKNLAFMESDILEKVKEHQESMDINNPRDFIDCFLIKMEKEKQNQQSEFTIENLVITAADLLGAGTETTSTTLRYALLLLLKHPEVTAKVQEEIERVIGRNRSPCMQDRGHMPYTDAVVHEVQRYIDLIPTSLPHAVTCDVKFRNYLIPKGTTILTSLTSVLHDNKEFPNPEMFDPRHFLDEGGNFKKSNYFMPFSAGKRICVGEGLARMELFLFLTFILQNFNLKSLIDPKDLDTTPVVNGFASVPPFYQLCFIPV
Sequence of SWI/SNF-related matrix-associated actin-dependent regulator of chromatin subfamily A member 2 (P51531 whole entry): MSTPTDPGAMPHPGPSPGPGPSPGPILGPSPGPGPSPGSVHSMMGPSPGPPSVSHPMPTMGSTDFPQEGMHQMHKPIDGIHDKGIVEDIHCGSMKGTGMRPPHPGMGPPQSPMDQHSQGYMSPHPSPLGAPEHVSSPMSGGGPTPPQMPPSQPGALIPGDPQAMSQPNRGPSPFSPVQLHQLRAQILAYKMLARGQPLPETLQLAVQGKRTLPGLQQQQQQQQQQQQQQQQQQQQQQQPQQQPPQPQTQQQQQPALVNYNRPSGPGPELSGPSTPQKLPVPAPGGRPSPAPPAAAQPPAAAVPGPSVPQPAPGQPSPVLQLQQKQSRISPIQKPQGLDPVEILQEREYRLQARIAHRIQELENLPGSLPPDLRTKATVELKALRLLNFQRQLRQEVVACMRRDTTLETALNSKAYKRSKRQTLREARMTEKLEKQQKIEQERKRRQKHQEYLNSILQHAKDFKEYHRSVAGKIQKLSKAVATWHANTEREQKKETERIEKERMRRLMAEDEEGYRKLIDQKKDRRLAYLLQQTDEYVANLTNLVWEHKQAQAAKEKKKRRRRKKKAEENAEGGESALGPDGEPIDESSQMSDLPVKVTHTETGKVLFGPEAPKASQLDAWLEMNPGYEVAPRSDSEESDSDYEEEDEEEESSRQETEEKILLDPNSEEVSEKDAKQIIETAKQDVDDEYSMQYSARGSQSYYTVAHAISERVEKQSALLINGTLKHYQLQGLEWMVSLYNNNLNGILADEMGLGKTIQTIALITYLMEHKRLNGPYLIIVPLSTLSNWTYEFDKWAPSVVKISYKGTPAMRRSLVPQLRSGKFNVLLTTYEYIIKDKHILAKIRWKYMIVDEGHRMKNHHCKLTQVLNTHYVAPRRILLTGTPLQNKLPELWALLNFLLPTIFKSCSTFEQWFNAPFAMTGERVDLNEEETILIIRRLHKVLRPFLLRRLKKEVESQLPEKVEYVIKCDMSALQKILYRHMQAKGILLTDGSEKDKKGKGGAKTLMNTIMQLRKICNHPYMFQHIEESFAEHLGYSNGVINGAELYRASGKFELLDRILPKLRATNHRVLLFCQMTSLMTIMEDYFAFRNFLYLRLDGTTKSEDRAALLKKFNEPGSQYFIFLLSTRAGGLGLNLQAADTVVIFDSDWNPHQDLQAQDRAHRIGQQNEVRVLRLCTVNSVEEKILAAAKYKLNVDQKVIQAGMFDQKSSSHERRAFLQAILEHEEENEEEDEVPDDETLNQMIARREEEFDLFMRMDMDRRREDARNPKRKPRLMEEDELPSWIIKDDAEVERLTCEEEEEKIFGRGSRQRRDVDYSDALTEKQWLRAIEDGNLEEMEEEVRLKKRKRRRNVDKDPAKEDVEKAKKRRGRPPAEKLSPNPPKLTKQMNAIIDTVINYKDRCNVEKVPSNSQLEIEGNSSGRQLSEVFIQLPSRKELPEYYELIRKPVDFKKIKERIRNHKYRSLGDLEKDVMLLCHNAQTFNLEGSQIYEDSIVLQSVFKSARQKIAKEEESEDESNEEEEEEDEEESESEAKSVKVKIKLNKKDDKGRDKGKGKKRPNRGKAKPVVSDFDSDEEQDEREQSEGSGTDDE

## CN1CCc2cc(O)cc3c2[C@H]1Cc1ccc(O)c(O)c1-3
[1]
  CC50: 16 µM (active)
[2]
  EC50: 5.41 µM (active)
[3]
  IC50: 63 µM (inactive)
[4]
  EC50: 0.0112 µM (active)
[5]
  EC50: 3.17 µM (active)
[6]
  EC50: 92.4 µM (inactive)
[7]
  IC50: 9.43 µM (active)

## Cc1ccc(C(=O)CNc2ccc(Cl)cc2)cc1
[8]
  EC50: > 260 µM (inactive)
[9]
  IC50: 130 µM (inactive)
[10]
  EC50: > 91.2 µM (inactive)
[11]
  EC50: > 91.2 µM (inactive)

## CCC(C)c1ccc(NC(=S)Nc2ccc(OC)cc2)cc1 (configuration not stated)
[12]
  EC50: > 53 µM (inactive)
[9]
  IC50: > 80 µM (inactive)
[13]
  IC50: > 47.1 µM (inactive)

## COc1ccc(-c2cc(C(=O)N3CCN(C(c4ccccc4)c4ccccc4)CC3)no2)cc1
[9]
  IC50: > 80 µM (inactive)

## CC(C)C[C@H]1C(=O)N2CCC[C@H]2[C@]2(O)O[C@](NC(=O)[C@@H]3C=C4c5cccc6[nH]c(Br)c(c56)CC4N(C)C3)(C(C)C)C(=O)N12 (some centres not stated)
[4]
  EC50: 0.0038 µM (active)
[14]
  AC50: > 380 µM (inactive)
[6]
  EC50: 92.5 µM (inactive)
[15]
  EC50: > 380 µM (inactive)

## CCS(=O)(=O)N1CCC(C(=O)NCCCN2CCN(c3ccccc3F)CC2)CC1
[4]
  EC50: 76.1 µM (inactive)
[16]
  AC50: inconclusive
[17]
  AC50: inconclusive
[18]
  AC50: 15.8 µM (inconclusive)
[6]
  EC50: 92.5 µM (inactive)
[19]
  AC50: 1.26 µM (inconclusive)

## Cc1ccc2[nH]c(C(=O)N3CCN(C(c4ccccc4)c4ccccc4)CC3)cc2c1
[9]
  IC50: > 80 µM (inactive)

## C[C@@H]1CN([C@@H](C)CO)C(=O)c2cc(NC(=O)CCCN(C)C)ccc2O[C@@H](C)CCCCO[C@@H]1CN(C)Cc1ccc(C(F)(F)F)cc1
[20]
  AC50: 37.9 µM (active)
